Results: patent US6353024B1, “Method for preventing and treating arthritis, osteo-traumatic pain, and neuralgias with trimebutine” (Warner-Lambert Company, priority 2000, dated 2002)

Experiments:
[1] = volunteers, tablets of 900 mg of trimebutine, oral
[2] = system: sodium current of DRG neurons; assay: whole cell patch clamp, sodium currents in DRG neurons; type: cell-based, rat
[3] = system: unilateral peripheral mononeuropathy; assay: rat mononeuropathy, vocalization threshold to paw pressure
[4] = system: streptozocin-induced hyperalgesia; assay: streptozocin-induced diabetic rats, tail immersion test; type: in vivo, rat; conditions: single dose 30 mg/kg s.c., 30 min or 60 min before tail immersion test, water 44° C.
Procedure: FIG. 9: Effect of TMB in diabetic rats.
Test is carried out with male Sprague Dawley rats (Iffa-Credo) weighing 160-180 grams on arrival. […] Food and water are provided ad libidum.
Animals are intraperitoneally injected with streptozocin 75 mg/kg. Control animals are given vehicle in the same conditions. Diabetes are confirmed once a week after injection by measurement of tail vein blood glucose levels with Boehriger glycemnia test. Only animals with a final glucose level[…] are included in the study.
The tail of the rat is immersed in a water bath at 44° C. Nociceptive reaction is defined as the reaction time (seconds) before the tail withdrawal. Results are expressed as the mean+/−SEM and analysed by a Student's t test after an analysis of variance (Anova one way)

[5] = system: formalin induced pain; assay: formalin-induced pain; conditions: s.c., 30 min before formalin injection in the paw

## CCC(COC(=O)c1cc(OC)c(OC)c(OC)c1)(c1ccccc1)N(C)C.O=C(O)/C=C\C(=O)O (racemic) [trimebutine, 2-dimethylamino-2-phenylbutyl 3,4,5-trimethoxybenzoate hydrogen maleate]
[1]
  time of maximal plasma concentrations: 1 h
[2]
  unblocking rate koff: 29 10^−3 s^−1
[2]; n=6
  time constant τoff of recovery from block: 34 ± 4 s

## CC[C@](COC(=O)c1cc(OC)c(OC)c(OC)c1)(NC)c1ccccc1 [(S)-Nor-TMB, (S)-N-desmethyl trimebutine]
[3]; 3 and 10 mg/kg s.c.
  antinociceptive effect in terms of amplitude and duration of action: superior to that of morphine at 1 mg/kg i.v.
[3]; s.c.
  antinociceptive effect in the contralateral paw: only at the highest dose (10 mg/kg)
  dose from which increase of the vocalization pressure threshold is present: ≥ 1 mg/kg
[3]; s.c., three doses
  antinociceptive effect in the nerve-injured paw: significant at all the three doses tested
[4]
  reaction time of tail withdrawal: the same as in control (non diabetic) rats

## CCC(COC(=O)c1cc(OC)c(OC)c(OC)c1)(NC)c1ccccc1 (stereo not drawn) [Nor-TMB, N-desmethyl trimebutine]
[5]
  ED50, formalin induced pain: 17 mg/kg
